Data on 6 compounds can be found in article PMC4741274 (Neurochemical research, 2015).

The subject of assay [1] is α4β2* nAChRs from rat forebrain tissue (FB). The assay is described as follows: biochemical. The format is binding. As to conditions: Ki α3β4 transfected cells vs rat forebrain (FB) α4β2.
For assay [2], the target named is α4β2* nAChRs from rat forebrain tissue (FB) (Rattus norvegicus, UniProt P09483+P12390). As to the kind of experiment: biochemical. The class given is binding.
Assay [3] addresses T1, α2β4 nAChR (Rattus norvegicus, UniProt P12389+P12392). As to the kind of experiment: Competition binding vs 500 pM [3H]EB, stably transfected HEK cells.
The target of a further assay is rat α3β4 nAChRs (Rattus norvegicus, UniProt P04757+P12392). The assay is described as follows: cell-based. The format is cell-based. As to conditions: for Agonist activity (in words): α3β4 nAChRs, 86Rb+ efflux.
The target of another assay is α2β2 nAChR (Rattus norvegicus, UniProt P12389+P12390). The assay is described as follows: Competition binding vs 500 pM [3H]EB, stably transfected HEK cells.
The target of another assay is α3β2 nAChR (Rattus norvegicus, UniProt P04757+P12390). The assay is described as above.
Assay [4] concerns the target T2, α3β4 nAChR (Rattus norvegicus, UniProt P04757+P12392). The description is as above. To be noted: for Selectivity ratio α3β4/α7: ratio of Ki in stably transfected cells.
Assay [5] has as its system IMR-32 cells (ganglionic-like α3β4 nAChRs). To be noted: 86Rb+ efflux, ref [22]; cited from earlier work.
The target in assay [6] is T3, α4β2 nAChR (Rattus norvegicus, UniProt P09483+P12390). The format is binding. As to conditions: for Ki: read-out: Ki α4β2, vs 500pM [3H]EB, HEK cells, Mean ± SEM of three.
For the next assay, the target named is α4β4 nAChR (Rattus norvegicus, UniProt P09483+P12392). As to the kind of experiment: Competition binding vs 500 pM [3H]EB, stably transfected HEK cells.
For assay [7], the target named is T4, α7 nAChR (Rattus norvegicus, UniProt Q05941). The assay is described as above.
For assay [8], the system named is Human α4β2 nAChRs expressed in K177 cells. As to conditions: 86Rb+ efflux, ref [22]; cited from earlier work.
Assay [9] relates to α4β2* nAChRs from rat forebrain tissue (FB). To be noted: cited from earlier work.
Assay [10] has as its target T3, α4β2 nAChR. To be noted: added only for comparison; ref [24]; cited from earlier work.
The target of assay [11] is T1, α2β4 nAChR. As to conditions: read-out: Ki α2β4; added for comparison; ref [24]; cited from earlier work.
Assay [12] concerns the target T2, α3β4 nAChR. To be noted: cited from earlier work.
Assay [13] concerns the target T4, α7 nAChR. As to conditions: read-out: Ki α7; added for comparison; ref [24]; cited from earlier work.
A further assay addresses nAChRs (Rattus norvegicus, UniProt P09483+P12390). The format is binding. To be noted: read-out: Ki AVG.
[14] abbreviates: ratio of Ki in stably transfected cells.
[15] abbreviates: read-out: Ki α2β4, vs 500pM [3H]EB, HEK cells, Mean ± SEM of three.
Setting [16] is: read-out: Ki α2β2, vs 500pM [3H]EB, HEK cells, Mean ± SEM of three.
The mark [17] stands for this setting: read-out: Ki α3β2, vs 500pM [3H]EB, HEK cells, Mean ± SEM of three.
[18] abbreviates: read-out: Ki α3β4, vs 500pM [3H]EB, HEK cells, Mean ± SEM of three.
Where [19] appears, read: read-out: Ki α4β4, vs 500pM [3H]EB, HEK cells, Mean ± SEM of three.
Setting [20] is: read-out: Ki α7, vs 500pM [3H]EB, HEK cells, Mean ± SEM of three.

Where “and” joins values, the source holds several entries; their conditions need not be identical. Equal values may be shown once. Entries after “also recorded” stand apart in the source; their conditions may differ. Read-outs that look alike come from different tables or passages of the source. Bounds are passed on as bounds.

In general, Ki refers to the dissociation constant of the complex between target and ligand, obtained from inhibition or displacement. By EC50 is commonly meant the concentration needed to bring the measured effect to its halfway point. For orientation: Emax means the maximal effect, on the per cent scale that the assay sets. On to `CN1CCC[C@H]1COc1cccnc1` [A-84543, 3-(1-methyl-2(S)-pyrrolidinylmethoxy)pyridine, reference compound], for which the “Selectivity ratio α3β4/α4β2*FB” value in assay [1] was determined as 351.9. In addition, the inhibition constant Ki came to 5.4 ± 0.6 nM in assay [2]; 370 ± 40 nM on α2β4 nAChR [3]; 2 ± 0.3 nM on α2β2 nAChR; 12 ± 1 nM at α3β2 nAChR; 1900 nM on α3β4 nAChR [4]; 150 ± 10 nM on α4β4 nAChR. The compound further yielded an inhibition constant Ki at α7 nAChR [7] of 340 ± 50 nM. Also, the EC50 at rat α3β4 nAChRs is 160000 ± 40000 nM; in assay [8], 750 nM. Further, the Emax on rat α3β4 nAChRs (HEK293, read-out: Relative Emax) turned out to be 37.5 ± 6%. The “Agonist activity (in words)” value on rat α3β4 nAChRs is recorded as “partial agonist with low potency”. Moreover, the “Selectivity ratio α3β4/α7” value at α3β4 nAChR [4] amounted to 5.58. Also, the “Agonist/antagonist function (in words)” value in assay [5] and in assay [8] was “full agonists” in each case. Moreover, the “Selectivity ratio α3β4/α4β2” value at α4β2 nAChR [6] (setting [14]) is listed as 1,357. The “Selectivity ratio α7/α4β2” value on α4β2 nAChR [6] (setting [14]) is 242.

Regarding `c1cncc(OC[C@@H]2CCN2)c1` [A-85380, 3-(2(S)-azetidinylmethoxy) pyridine], in assay [9], the “Selectivity ratio α3β4/α4β2*FB” value was 312. Further, the “Selectivity ratio α3β4/α4β2” value at α4β2 nAChR [10] was 557.14. Besides, the “Selectivity ratio α7/α4β2” value at α4β2 nAChR [10] is listed as 3,000. Also, the values for the inhibitory constant (Ki) on α2β4 nAChR [11] and on α7 nAChR [13] were 18 ± 4 nM and 420 ± 50 nM, respectively. In addition, on α3β4 nAChR [12], the “Selectivity ratio α3β4/α7” value was 0.18.

As for `c1cncc(OC[C@@H]2CCCN2)c1` [H-11MNH], the “Selectivity ratio α3β4/α4β2*FB” value was 295.8 in [1] and ~ 300 in assay [1] (listed as H-11NMH). Besides, the inhibition constant Ki at α2β4 nAChR [3] (setting [15]) is 76 ± 12 nM; on α2β2 nAChR (setting [16]), 0.35 ± 0.09 nM; at α3β2 nAChR (setting [17]), 1.3 ± 0.3 nM; at α3β4 nAChR [4] (setting [18]), 210 ± 40 nM; at α4β2 nAChR [6], 0.39 ± 0.05 nM; on α4β4 nAChR (setting [19]) it was 31 ± 6 nM. Besides, the inhibition constant (Ki) at α7 nAChR [7] (setting [20]) stood at 65 ± 5 nM; at nAChRs, 0.46 nM. Besides, the EC50 is 24000 ± 1000 nM at rat α3β4 nAChRs and 4000 nM in assay [8]. The “Relative Emax” value at rat α3β4 nAChRs is 83.33% and 83.3 ± 3%. Also, the “Agonist activity (in words)” value on rat α3β4 nAChRs is on record as “full agonist with high potency; also recorded: full agonist with high efficacy”. In addition, on α3β4 nAChR [4], the “Selectivity ratio α3β4/α7” value was determined as 3.23. In addition, the “Agonist/antagonist function (in words)” value in assay [5] and in [8] was “full agonists” throughout. In addition, on α4β2 nAChR [6] (setting [14]), the “Selectivity ratio α3β4/α4β2” value is 538.5.

For the compound `c1ccc(OCC2CCCN2)nc1` (centres unmarked) [H-11ONH], the inhibition constant (Ki) at α2β4 nAChR [3] (setting [15]), at α2β2 nAChR (setting [16]), on α3β2 nAChR (setting [17]), on α3β4 nAChR [4] (setting [18]), at α4β2 nAChR [6] and on α4β4 nAChR (setting [19]) was > 10000 nM throughout. Further, the figures for the Ki on α7 nAChR [7] (setting [20]) and on nAChRs were > 10000 nM and 21800 nM, respectively.

`CN1CCCC1COc1ccccn1` (centres unmarked) [H-11ONM]: the inhibition constant (Ki) at α2β4 nAChR [3] (setting [15]), at α2β2 nAChR (setting [16]), on α3β2 nAChR (setting [17]), on α3β4 nAChR [4] (setting [18]), on α4β2 nAChR [6] and on α4β4 nAChR (setting [19]) was > 10000 nM in each case. Further, the Ki at α7 nAChR [7] (setting [20]) was > 10000 nM; on nAChRs, 60300 nM.

As to `c1cc(OC[C@@H]2CCCN2)ccn1` [H-11PNH], the Ki at α2β4 nAChR [3] (setting [15]), on α2β2 nAChR (setting [16]), on α3β2 nAChR (setting [17]), on α3β4 nAChR [4] (setting [18]), at α4β2 nAChR [6] and on α4β4 nAChR (setting [19]) was > 10000 nM each time. The inhibitory constant (Ki) at α7 nAChR [7] (setting [20]) is > 10000 nM; at nAChRs, 59200 nM.
